In patent publication EP0315467A2, “Pentamidine salts useful in the treatment and prophylaxis of pneumocystis carinii pneumonia” (LyphoMed, Inc., priority 1987, dated 1989):
Counter-ions that a name gives are not always drawn.

Experiments:
[1] = Solubility in water of pentamidine salts; type: physicochemical; conditions: for Solubility in H₂O: Table I
[2] = background statement on the prior art; cited from earlier work

N=C(N)c1ccc(OCCCCCOc2ccc(C(=N)N)cc2)cc1 [Pentamidine Acetate]
Solubility in H₂O [1]: 17.0 mg/mL

N=C(N)c1ccc(OCCCCCOc2ccc(C(=N)N)cc2)cc1 [Pentamidine Borate]
Solubility in H₂O [1]: 6.9 mg/mL

N=C(N)c1ccc(OCCCCCOc2ccc(C(=N)N)cc2)cc1 [Pentamidine Citrate]
Solubility in H₂O [1]: 0.6 mg/mL

N=C(N)c1ccc(OCCCCCOc2ccc(C(=N)N)cc2)cc1 [Pentamidine Gluconate]
Solubility in H₂O [1]: 114.8 mg/mL | solubility ([1]; bound stated in the text): > 100 mg/mL

N=C(N)c1ccc(OCCCCCOc2ccc(C(=N)N)cc2)cc1 [Pentamidine Hydrochloride, reference compound]
solubility in water (in words) [2]: substantially water insoluble | Solubility in H₂O ([1]; Hydrochloride): 14.5 mg/mL

N=C(N)c1ccc(OCCCCCOc2ccc(C(=N)N)cc2)cc1 [Pentamidine Lactate]
Solubility in H₂O [1]: 100.3 mg/mL | water solubility ([1]; bound stated in the text): greater than 100 mg/mL

N=C(N)c1ccc(OCCCCCOc2ccc(C(=N)N)cc2)cc1 [Pentamidine Nitrate]
Solubility in H₂O [1]: 1.8 mg/mL

N=C(N)c1ccc(OCCCCCOc2ccc(C(=N)N)cc2)cc1 [Pentamidine Phosphate]
Solubility in H₂O [1]: 16.8 mg/mL

N=C(N)c1ccc(OCCCCCOc2ccc(C(=N)N)cc2)cc1 [Pentamidine Sulfate]
Solubility in H₂O [1]: 1.4 mg/mL

N=C(N)c1ccc(OCCCCCOc2ccc(C(=N)N)cc2)cc1 [Pentamidine Tartarate]
Solubility in H₂O [1]: 3.4 mg/mL
